Assay results published in PubChem BioAssay AID248 (DTP/NCI, 2004).
Where “and” joins values, the source holds several entries; their conditions need not be identical. Equal values may be shown once. Toxic doses and inconclusive results are not listed.

Tested on: L1210 leukemia ip in BDF1 mice, survival T/C
Assay: NCI In Vivo Anticancer Drug Screen. Data for tumor model L1210 Leukemia (intraperitoneal) in B6D2F1 (BDF1) mice
Settings: endpoint: mean survival time, higher = longer survival
Summary of the method: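 Each compound was tested against a transplantable tumor grown in mice. The endpoint was survival, with treated animals benchmarked against vehicle controls as a simple ratio.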

[1] = dose: 100.0 mg/kg/injection, schedule: Q04DX003 (ip), vehicle: Klucel (hydroxypropylcellulose) (HPC)
[2] = dose: 200.0 mg/kg/injection, schedule: Q04DX003 (ip), vehicle: Klucel (hydroxypropylcellulose) (HPC)
[3] = dose: 400.0 mg/kg/injection, schedule: Q04DX003 (ip), vehicle: Klucel (hydroxypropylcellulose) (HPC)
[4] = dose: 200.0 mg/kg/injection, schedule: Q04DX003 (ip), vehicle: saline with Tween-80
[5] = dose: 100.0 mg/kg/injection, schedule: Q01DX001 (ip), vehicle: saline
[6] = dose: 200.0 mg/kg/injection, schedule: Q01DX001 (ip), vehicle: saline
[7] = dose: 400.0 mg/kg/injection, schedule: Q01DX001 (ip), vehicle: saline
[8] = dose: 75.0 mg/kg/injection, schedule: Q01DX001 (ip), vehicle: saline
[9] = dose: 100.0 mg/kg/injection, schedule: Q01DX009 (ip), vehicle: saline with Tween-80
[10] = dose: 200.0 mg/kg/injection, schedule: Q01DX009 (ip), vehicle: saline with Tween-80

CC1=C(N)C(=O)C(C)=C(N)C1=O
T/C (dose: 100.0 mg/kg/injection, schedule: Q01DX001 (ip), vehicle: other): 98 % of control | T/C (dose: 200.0 mg/kg/injection, schedule: Q01DX001 (ip), vehicle: other): 88 % of control | T/C (dose: 400.0 mg/kg/injection, schedule: Q01DX001 (ip), vehicle: other): 97 % of control

CS(=O)(=O)c1nc(Cl)nc(S(C)(=O)=O)c1Cl
T/C [1]: 110 % of control | T/C [2]: 107 % of control | T/C [3]: 104 % of control

CCCC1N(C)CCCN1C
T/C (dose: 100.0 mg/kg/injection, schedule: Q04DX003 (ip), vehicle: saline with Tween-80): 114 % of control | T/C [4]: 102 % of control

CCCC1C(CC)CC(CC)C(O)C1(CC)CO (stereo not given)
T/C (dose: 100.0 mg/kg/injection, schedule: Q01DX009 (ip), vehicle: other): 98 % of control | T/C (dose: 200.0 mg/kg/injection, schedule: Q01DX009 (ip), vehicle: other): 95 % of control | T/C (dose: 400.0 mg/kg/injection, schedule: Q01DX009 (ip), vehicle: other): 87 % of control

CNC(=O)C(c1ccccc1)C(O)(c1ccccc1)c1ccccc1 (stereo not given)
T/C (dose: 50.0 mg/kg/injection, schedule: Q01DX001 (ip), vehicle: saline): 96 % of control | T/C [5]: 93 % of control | T/C [6]: 98 % of control | T/C [7]: 87 % of control

O=C(O)c1ccc(/C=C\c2cccc(S(=O)(=O)F)c2)cc1
T/C (dose: 100.0 mg/kg/injection, schedule: Q01DX001 (ip), vehicle: saline with Tween-80): 100 % of control | T/C (dose: 200.0 mg/kg/injection, schedule: Q01DX001 (ip), vehicle: saline with Tween-80): 97 % of control | T/C (dose: 400.0 mg/kg/injection, schedule: Q01DX001 (ip), vehicle: saline with Tween-80): 92 % of control

c1ccc2c(c1)CCC1NC21 (stereo not given)
T/C (dose: 100.0 mg/kg/injection, schedule: Q01DX001 (ip), vehicle: carboxymethylcellulose (CMC)): 103 % of control | T/C (dose: 200.0 mg/kg/injection, schedule: Q01DX001 (ip), vehicle: carboxymethylcellulose (CMC)): 105 % of control

COc1ccc(CC(C)=O)cc1
T/C (dose: 50.0 mg/kg/injection, schedule: Q04DX003 (ip), vehicle: saline): 96 % of control | T/C (dose: 100.0 mg/kg/injection, schedule: Q04DX003 (ip), vehicle: saline): 105 % of control

O=C1C2CC(CN3CCCCC23)C2CCCCN12 (stereo not given)
T/C [8]: 94 % of control | T/C (dose: 150.0 mg/kg/injection, schedule: Q01DX001 (ip), vehicle: saline): 103 % of control | T/C (dose: 300.0 mg/kg/injection, schedule: Q01DX001 (ip), vehicle: saline): 101 % of control

Brc1c(Br)c(Br)c(Br)c(Br)c1Br
T/C [5]: 93 % of control | T/C [6]: 92 % of control | T/C [7]: 98 % of control

Cc1ccc(NC(=O)Nc2cc([N+](=O)[O-])ccc2F)cc1C
T/C [1]: 101 % of control | T/C [2]: 98 % of control | T/C [3]: 101 % of control

c1ccc(COc2ccc(OCc3ccccc3)cc2)cc1
T/C (dose: 50.0 mg/kg/injection, schedule: Q01DX009 (ip), vehicle: saline): 93 % of control | T/C (dose: 100.0 mg/kg/injection, schedule: Q01DX009 (ip), vehicle: saline): 98 % of control | T/C [1]: 87 % of control | T/C (dose: 200.0 mg/kg/injection, schedule: Q01DX009 (ip), vehicle: saline): 93 % of control | T/C [2]: 105 % of control | T/C [3]: 94 % of control

C=C(CSCC(N)=O)c1ccccc1
T/C (dose: 100.0 mg/kg/injection, schedule: Q04DX002 (ip), vehicle: Klucel (hydroxypropylcellulose) (HPC)): 97 % of control | T/C (dose: 200.0 mg/kg/injection, schedule: Q04DX002 (ip), vehicle: Klucel (hydroxypropylcellulose) (HPC)): 97 % of control | T/C (dose: 400.0 mg/kg/injection, schedule: Q04DX002 (ip), vehicle: Klucel (hydroxypropylcellulose) (HPC)): 94 % of control

COC(=O)C(c1ccccc1)C1(O)CCN(Cc2ccccc2)CC1 (stereo not given)
T/C (dose: 75.0 mg/kg/injection, schedule: Q04DX003 (ip), vehicle: Klucel (hydroxypropylcellulose) (HPC)): 98 % of control | T/C (dose: 150.0 mg/kg/injection, schedule: Q04DX003 (ip), vehicle: Klucel (hydroxypropylcellulose) (HPC)): 101 % of control | T/C (dose: 300.0 mg/kg/injection, schedule: Q04DX003 (ip), vehicle: Klucel (hydroxypropylcellulose) (HPC)): 90 % of control

CCN(CC)N=Nc1ccc(S(=O)(=O)N(C)C)cc1
T/C (dose: 100.0 mg/kg/injection, schedule: Q04DX002 (ip), vehicle: saline with Tween-80): 104 % of control | T/C (dose: 200.0 mg/kg/injection, schedule: Q04DX002 (ip), vehicle: saline with Tween-80): 97 % of control | T/C (dose: 400.0 mg/kg/injection, schedule: Q04DX002 (ip), vehicle: saline with Tween-80): 115 % of control

CC(=O)Nc1ccc(/C=N/NC(=O)CNC(=O)Nc2cccc(Cl)c2)cc1
T/C (dose: 12.5 mg/kg/injection, schedule: Q01DX009 (ip), vehicle: saline with Tween-80): 95 % of control | T/C (dose: 25.0 mg/kg/injection, schedule: Q01DX009 (ip), vehicle: saline with Tween-80): 95 % of control | T/C (dose: 50.0 mg/kg/injection, schedule: Q01DX009 (ip), vehicle: saline with Tween-80): 87 % of control and 91 % of control

O=C(CNC(=O)c1ccc(C(=O)NCC(=O)Nc2ccc(C3=NCCN3)cc2)cc1)Nc1ccc(C2=NCCN2)cc1
T/C (dose: 1.87 mg/kg/injection, schedule: Q01DX015 (ip), vehicle: methylcellulose (MC)): 102 % of control | T/C (dose: 3.75 mg/kg/injection, schedule: Q01DX015 (ip), vehicle: methylcellulose (MC)): 103 % of control | T/C (dose: 7.5 mg/kg/injection, schedule: Q01DX015 (ip), vehicle: methylcellulose (MC)): 100 % of control | T/C (dose: 10.0 mg/kg/injection, schedule: Q01DX015 (ip), vehicle: methylcellulose (MC)): 102 % of control | T/C (dose: 62.0 mg/kg/injection, schedule: Q01DX Z (ip), vehicle: carboxymethylcellulose (CMC)): 188 % of control | T/C (dose: 125.0 mg/kg/injection, schedule: Q01DX Z (ip), vehicle: carboxymethylcellulose (CMC)): 233 % of control | T/C (dose: 150.0 mg/kg/injection, schedule: Q01DX001 (ip), vehicle: methylcellulose (MC)): 154 % of control | T/C (dose: 250.0 mg/kg/injection, schedule: Q01DX Z (ip), vehicle: carboxymethylcellulose (CMC)): 106 % of control | T/C (dose: 300.0 mg/kg/injection, schedule: Q01DX001 (ip), vehicle: methylcellulose (MC)): 158 % of control | T/C (dose: 600.0 mg/kg/injection, schedule: Q01DX001 (ip), vehicle: methylcellulose (MC)): 187 % of control and 201 % of control and 207 % of control | T/C (dose: 900.0 mg/kg/injection, schedule: Q01DX001 (ip), vehicle: methylcellulose (MC)): 174 % of control and 262 % of control

CCC1CCC(NC(=O)c2ccccc2)CC1 (stereo not given)
T/C [9]: 92 % of control | T/C [10]: 94 % of control | T/C (dose: 400.0 mg/kg/injection, schedule: Q01DX009 (ip), vehicle: saline with Tween-80): 92 % of control

COC(=O)C(CCC(=O)C=[N+]=N)NC(=O)C(Cl)Cl (stereo not given)
T/C (dose: 35.0 mg/kg/injection, schedule: Q01DX001 (ip), vehicle: saline): 122 % of control | T/C [8]: 122 % of control | T/C (dose: 125.0 mg/kg/injection, schedule: Q01DX001 (ip), vehicle: saline): 111 % of control | T/C [4]: 167 % of control | T/C (dose: 266.0 mg/kg/injection, schedule: Q01DX001 (ip), vehicle: saline): 98 % of control | T/C (dose: 400.0 mg/kg/injection, schedule: Q04DX003 (ip), vehicle: saline with Tween-80): 124 % of control | T/C (dose: 600.0 mg/kg/injection, schedule: Q01DX001 (ip), vehicle: saline): 117 % of control

COc1ccc(Br)cc1
T/C [9]: 96 % of control | T/C [1]: 100 % of control | T/C [10]: 89 % of control | T/C [2]: 100 % of control | T/C [3]: 103 % of control

S=C(NCc1ccco1)Nc1ccccc1Cl
T/C (dose: 100.0 mg/kg/injection, schedule: Q01DX009 (ip), vehicle: Klucel (hydroxypropylcellulose) (HPC)): 100 % of control | T/C (dose: 200.0 mg/kg/injection, schedule: Q01DX009 (ip), vehicle: Klucel (hydroxypropylcellulose) (HPC)): 93 % of control

CC(=O)OCCN1CCN(CC/C=C2\c3ccccc3Sc3ccc(Cl)cc32)CC1
T/C (dose: 2.0 mg/kg/injection, schedule: Q01DX009 (ip), vehicle: saline): 100 % of control | T/C (dose: 5.0 mg/kg/injection, schedule: Q01DX009 (ip), vehicle: saline): 98 % of control and 115 % of control | T/C (dose: 10.0 mg/kg/injection, schedule: Q01DX009 (ip), vehicle: saline): 102 % of control | T/C (dose: 20.0 mg/kg/injection, schedule: Q01DX009 (ip), vehicle: saline): 111 % of control | T/C (dose: 25.0 mg/kg/injection, schedule: Q04DX003 (ip), vehicle: saline): 120 % of control | T/C (dose: 40.0 mg/kg/injection, schedule: Q01DX009 (ip), vehicle: saline): 117 % of control | T/C [5]: 108 % of control | T/C [6]: 114 % of control
